Measured values from patent publication US20050014268A1, “Genetic transformation using a PARP inhibitor” (Bayer BioScience NV, priority 1995, published 2005).

Test system: Hypocotyl explants of Brassica napus
Experiment: Agrobacterium-mediated transformation of oilseed rape hypocotyl explants with pTHW142 using niacinamide before, during or after infection
Format: cell-based
Protocol: Hypocotyl explants of Brassica napus were obtained as described in Example 3. Four groups of 200 hypocotyl explants each, were either not treated with niacinamide (indicated in table 4 as NONE), treated with 250 mg/l niacinamide for 1 day prior to infection with Agrobacterium (BEFORE), treated for 2 days during the infection with 250 mg/l niacinamide (DURING), or treated for 1 day after the Agrobacterium infection with 250 mg/l niacinamide (AFTER).
All hypocotyl explants were infected with Agrobacterium tumefaciens strain C58C1Rif carrying T-DNA vector pTHW142 and a helper Ti-plasmid pMP90 (Koncz and Shell, 1986 supra)(or a derivative thereof). Plasmid pTHW142 is a vector carrying a T-DNA comprising the following chimeric genes: • PSSU-bar-3′g7 • p35S-uidA-3′35S • In which uidA is a DNA encoding b-glucuronidase (Jefferson et al., 1986, Proc. Natl. Acad. Sci. USA 83, 8447-8451) and 3′ 35S is the 3′ untranslated end of the cauliflower mosaic virus 35S transcript. The complete sequence of the T-DNA of pTHW142 is presented in SEQ ID No 5.
After the Agrobacterium infection, hypocotyl explants were transferred to selection medium A5, and if appropriate to A5 medium containing 250 mg/ll niacinamide. The hypocotyl explants that were placed on medium containing niacinamide were transferred after 1 day to niacinamide-free selection medium A5. After 5 weeks on selective medium the number of transformed calli was scored. b-glucuronidase expression was verified in the obtained calli using established protocols (Jefferson et al., 1986).

NC(=O)c1cccnc1 [niacinamide]
Transformation frequency (transformed calli, PPT-resistant and GUS-positive, per 100 hypocotyl explants) (AFTER: 250 mg/l niacinamide for 1 day after the infection, scored after 5 weeks): 29%
Transformation frequency (transformed calli, PPT-resistant and GUS-positive, per 100 hypocotyl explants) (BEFORE: 250 mg/l niacinamide for 1 day prior to infection, scored after 5 weeks on selective medium): 32%
Remarks (callus size and appearance) (BEFORE, large: callus diameter of approximately 5 mm): large, green calli
Transformation frequency (transformed calli, PPT-resistant and GUS-positive, per 100 hypocotyl explants) (DURING: 250 mg/l niacinamide for 2 days during the infection, scored after 5 weeks): 16%
Remarks (callus size and appearance) (DURING, very small: callus diameter of approximately 1-2 mm): very small, light green calli
transformation efficiency (niacinamide treatment either before or after the Agrobacterium infection): significantly increase
